pEC50, pIC50: −log10 of the molar value. Each block holds one compound with its values, some of them ahead of it.
Key:
[1] = target: T1, Nuclear receptor subfamily 1 group I member 2 (Homo sapiens, UniProt O75469); experiment: (§1) Activation of full length human PXR expressed in human HepG2 cells co-expressing luciferase of CYP3A4 promoter transcription assessed as increase of luciferase activity preincubated for 24 hrs followed by addition of luciferase substrate and measured by hPXR Gene reporter assay; assay type: ADME, cell-based
T1 sequence (O75469 whole entry): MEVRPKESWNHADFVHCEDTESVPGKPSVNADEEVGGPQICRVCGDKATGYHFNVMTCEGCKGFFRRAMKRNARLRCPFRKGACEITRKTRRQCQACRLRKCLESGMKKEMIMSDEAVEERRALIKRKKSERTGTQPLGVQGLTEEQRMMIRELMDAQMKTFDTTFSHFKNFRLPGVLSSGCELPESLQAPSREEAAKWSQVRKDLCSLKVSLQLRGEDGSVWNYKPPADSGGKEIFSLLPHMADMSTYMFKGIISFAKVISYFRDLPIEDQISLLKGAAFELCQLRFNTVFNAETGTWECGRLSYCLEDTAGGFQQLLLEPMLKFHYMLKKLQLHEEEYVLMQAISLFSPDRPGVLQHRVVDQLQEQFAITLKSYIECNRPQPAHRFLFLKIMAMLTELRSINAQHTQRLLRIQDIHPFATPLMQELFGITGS

PXR (NR1I2) = target: T2, PXR (NR1I2) (Homo sapiens, UniProt O75469); experiment: as §1, with “activity at 50 uM” for “activity”, “assay relative to control” for “assay”; assay type: ADME, cell-based
T2 sequence (O75469 whole entry): T1 sequence (O75469 whole entry)

[2] = AUC (0 to t) in mouse at 300 mg/kg/day, po measured after 10 days; assay type: ADME, organism-based; set-up: time 10 day, dose 300 mg/kg/day; details: in vivo
[3] = AUC (0 to t) in rat at 300 mg/kg/day measured after 10 days; assay type: ADME, organism-based; set-up: time 10 day, dose 300 mg/kg/day; details: in vivo
[4] = AUC (0 to t) in mouse at 1000 mg/kg/day, po measured after 1 day; assay type: ADME, organism-based; set-up: time 1 day, dose 1000 mg/kg/day; details: in vivo
[5] = Cmax in rat at 300 mg/kg/day measured after 1 day; assay type: ADME, organism-based; set-up: dose 300 mg/kg/day, time 1 day; details: in vivo
[6] = Cmax in mouse at 1000 mg/kg/day, po measured after 1 day; assay type: ADME, organism-based; set-up: route oral, dose 1000 mg/kg/day, time 1 day; details: in vivo
[7] = Cmax in mouse at 300 mg/kg/day, po measured after 1 day; assay type: ADME, organism-based; set-up: route oral, dose 300 mg/kg/day, time 1 day; details: in vivo
[8] = Cmax in rat at 300 mg/kg/day measured after 10 days; assay type: ADME, organism-based; set-up: time 10 day, dose 300 mg/kg/day; details: in vivo
[9] = AUC (0 to t) in mouse at 2000 mg/kg/day, po measured after 1 day; assay type: ADME, organism-based; set-up: time 1 day, dose 2000 mg/kg/day; details: in vivo
CYP3A4 = CYP3A4 (Homo sapiens, UniProt P08684); experiment: Induction of CYP3A4 in human hepatocytes; assay type: ADME, cell-based, Liver
[10] = target: T3, Extracellular calcium-sensing receptor (Mus musculus, UniProt Q9QY96); experiment: Antagonist activity at mouse CaSR; assay type: functional
T3 sequence (Q9QY96 whole entry): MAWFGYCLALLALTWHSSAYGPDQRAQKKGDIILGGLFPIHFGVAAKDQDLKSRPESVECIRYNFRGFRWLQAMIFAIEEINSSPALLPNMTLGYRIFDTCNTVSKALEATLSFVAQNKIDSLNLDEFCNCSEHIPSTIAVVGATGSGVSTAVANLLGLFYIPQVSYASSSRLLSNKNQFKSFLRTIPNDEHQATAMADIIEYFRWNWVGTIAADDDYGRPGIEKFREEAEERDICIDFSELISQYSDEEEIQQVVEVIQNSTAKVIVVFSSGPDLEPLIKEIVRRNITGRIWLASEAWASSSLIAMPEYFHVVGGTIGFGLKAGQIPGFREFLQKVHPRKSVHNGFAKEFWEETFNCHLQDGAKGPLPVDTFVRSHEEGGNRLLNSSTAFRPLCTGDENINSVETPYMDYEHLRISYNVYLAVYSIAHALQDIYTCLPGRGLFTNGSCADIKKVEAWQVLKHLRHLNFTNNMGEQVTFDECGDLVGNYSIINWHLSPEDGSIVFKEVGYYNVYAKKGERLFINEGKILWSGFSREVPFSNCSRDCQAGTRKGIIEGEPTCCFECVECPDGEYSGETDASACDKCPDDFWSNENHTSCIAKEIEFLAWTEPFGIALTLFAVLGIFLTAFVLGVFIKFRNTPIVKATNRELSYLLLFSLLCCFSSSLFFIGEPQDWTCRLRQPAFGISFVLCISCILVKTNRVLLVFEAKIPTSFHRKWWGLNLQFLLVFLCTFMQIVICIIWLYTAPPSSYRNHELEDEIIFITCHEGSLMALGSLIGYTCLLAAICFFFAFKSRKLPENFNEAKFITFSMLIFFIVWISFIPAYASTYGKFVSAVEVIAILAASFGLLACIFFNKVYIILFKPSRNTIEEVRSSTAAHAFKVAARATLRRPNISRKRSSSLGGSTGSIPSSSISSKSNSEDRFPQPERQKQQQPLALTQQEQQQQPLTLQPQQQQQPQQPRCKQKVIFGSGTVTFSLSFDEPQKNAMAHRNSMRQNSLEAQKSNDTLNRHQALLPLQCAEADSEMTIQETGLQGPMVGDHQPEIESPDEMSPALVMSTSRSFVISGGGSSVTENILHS

[11] = Cmax in mouse at 2000 mg/kg/day, po measured after 1 day; assay type: ADME, organism-based; set-up: route oral, dose 2000 mg/kg/day, time 1 day; details: in vivo
[12] = Cmax in mouse at 1000 mg/kg/day, po measured after 10 days; assay type: ADME, organism-based; set-up: route oral, dose 1000 mg/kg/day, time 10 day; details: in vivo
[13] = Cmax in mouse at 2000 mg/kg/day, po measured after 10 days; assay type: ADME, organism-based; set-up: route oral, time 10 day, dose 2000 mg/kg/day; details: in vivo
[14] = AUC (0 to t) in rat at 300 mg/kg/day measured after 1 day; assay type: ADME, organism-based; set-up: dose 300 mg/kg/day, time 1 day; details: in vivo
[15] = AUC (0 to t) in mouse at 300 mg/kg/day, po measured after 1 day; assay type: ADME, organism-based; set-up: time 1 day, dose 300 mg/kg/day; details: in vivo
[16] = AUC (0 to t) in mouse at 2000 mg/kg/day, po measured after 10 days; assay type: ADME, organism-based; set-up: time 10 day, dose 2000 mg/kg/day; details: in vivo
[17] = Cmax in mouse at 300 mg/kg/day, po measured after 10 days; assay type: ADME, organism-based; set-up: route oral, time 10 day, dose 300 mg/kg/day; details: in vivo
[18] = AUC (0 to t) in mouse at 1000 mg/kg/day, po measured after 10 days; assay type: ADME, organism-based; set-up: time 10 day, dose 1000 mg/kg/day; details: in vivo
[19] = AUC (0 to t) in rat at 100 mg/kg/day measured after 1 day; assay type: ADME, organism-based; set-up: time 1 day, dose 100 mg/kg/day; details: in vivo
[20] = AUC (0 to t) in rat at 100 mg/kg/day measured after 10 days; assay type: ADME, organism-based; set-up: time 10 day, dose 100 mg/kg/day; details: in vivo
[21] = Cmax in rat at 100 mg/kg/day measured after 1 day; assay type: ADME, organism-based; set-up: dose 100 mg/kg/day, time 1 day; details: in vivo
[22] = Cmax in rat at 100 mg/kg/day measured after 10 days; assay type: ADME, organism-based; set-up: time 10 day, dose 100 mg/kg/day; details: in vivo
[23] = target: T4, Extracellular calcium-sensing receptor (Homo sapiens, UniProt P41180); experiment: Antagonist activity at human CaSR in human HEK293 cells measured after 5 mins by FLIPR assay; assay type: functional, cell-based
T4 sequence (P41180 whole entry): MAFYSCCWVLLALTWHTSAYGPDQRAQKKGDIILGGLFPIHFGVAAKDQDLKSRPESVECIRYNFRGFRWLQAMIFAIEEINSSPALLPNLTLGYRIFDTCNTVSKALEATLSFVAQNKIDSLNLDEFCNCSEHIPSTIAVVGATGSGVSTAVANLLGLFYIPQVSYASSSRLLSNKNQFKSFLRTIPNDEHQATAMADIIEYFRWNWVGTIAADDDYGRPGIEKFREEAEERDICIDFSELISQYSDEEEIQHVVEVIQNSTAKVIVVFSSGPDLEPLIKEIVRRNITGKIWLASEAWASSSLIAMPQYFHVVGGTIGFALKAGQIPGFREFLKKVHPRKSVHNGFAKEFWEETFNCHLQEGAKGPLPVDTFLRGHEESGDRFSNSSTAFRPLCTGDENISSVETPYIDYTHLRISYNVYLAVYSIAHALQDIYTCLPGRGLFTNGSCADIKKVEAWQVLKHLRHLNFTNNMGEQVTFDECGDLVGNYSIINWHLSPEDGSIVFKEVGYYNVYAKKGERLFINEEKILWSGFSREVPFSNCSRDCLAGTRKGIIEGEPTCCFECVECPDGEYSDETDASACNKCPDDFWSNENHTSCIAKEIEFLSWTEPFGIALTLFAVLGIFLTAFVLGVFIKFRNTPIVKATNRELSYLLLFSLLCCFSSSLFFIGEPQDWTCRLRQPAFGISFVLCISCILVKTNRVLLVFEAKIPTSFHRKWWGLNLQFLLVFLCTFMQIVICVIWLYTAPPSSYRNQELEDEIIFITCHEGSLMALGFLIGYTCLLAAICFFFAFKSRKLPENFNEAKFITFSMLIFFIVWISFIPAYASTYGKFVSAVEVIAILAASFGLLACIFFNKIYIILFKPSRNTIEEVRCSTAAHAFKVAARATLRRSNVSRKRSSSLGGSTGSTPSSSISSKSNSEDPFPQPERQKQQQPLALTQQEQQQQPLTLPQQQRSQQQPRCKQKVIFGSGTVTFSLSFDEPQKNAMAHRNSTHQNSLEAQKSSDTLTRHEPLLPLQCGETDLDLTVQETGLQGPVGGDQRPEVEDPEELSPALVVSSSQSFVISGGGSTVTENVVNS

Chain of CYP3A4 (P08684 whole entry): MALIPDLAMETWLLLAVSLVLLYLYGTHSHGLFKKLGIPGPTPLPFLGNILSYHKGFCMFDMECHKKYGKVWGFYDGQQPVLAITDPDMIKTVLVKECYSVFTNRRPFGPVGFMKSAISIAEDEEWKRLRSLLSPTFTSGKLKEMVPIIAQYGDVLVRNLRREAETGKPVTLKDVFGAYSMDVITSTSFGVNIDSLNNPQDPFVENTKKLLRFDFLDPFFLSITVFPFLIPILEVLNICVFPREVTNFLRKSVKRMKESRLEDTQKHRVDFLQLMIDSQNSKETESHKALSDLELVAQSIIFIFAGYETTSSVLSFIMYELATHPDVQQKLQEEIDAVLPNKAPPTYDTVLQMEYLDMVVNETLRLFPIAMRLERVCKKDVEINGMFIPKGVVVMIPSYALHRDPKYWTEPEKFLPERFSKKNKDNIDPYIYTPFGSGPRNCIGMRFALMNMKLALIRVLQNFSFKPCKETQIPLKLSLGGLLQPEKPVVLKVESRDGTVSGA

SMILES: Cc1ccc(-c2c(C)nc(-c3cccc(F)c3O)n(CCc3ccccc3)c2=O)s1
AUC(0-t) at 240 h [2]: 1260 ng·h/mL
AUC(0-t) at 240 h [3]: 1800 ng·h/mL
AUC(0-t) at 24 h [4]: 10800 ng·h/mL
Cmax [5]: 330 ng/mL
pEC50 [1]: 5.60
Cmax [6]: 2960 ng/mL
Emax at 24 h, 50 µM (PXR (NR1I2)): 122%
Cmax [7]: 980 ng/mL
Cmax [8]: 360 ng/mL
AUC(0-t) at 24 h [9]: 15100 ng·h/mL
Emax (CYP3A4): 10%
pIC50 [10]: 7.29
Cmax [11]: 3600 ng/mL
Cmax [12]: 680 ng/mL
Cmax [13]: 480 ng/mL
AUC(0-t) at 24 h [14]: 2500 ng·h/mL
AUC(0-t) at 24 h [15]: 2880 ng·h/mL
AUC(0-t) at 240 h [16]: 1580 ng·h/mL
Cmax [17]: 820 ng/mL
AUC(0-t) at 240 h [18]: 2850 ng·h/mL

SMILES: Cc1nc(-c2cccc(F)c2O)n(CCc2ccccc2)c(=O)c1Cc1ccccc1
pEC50 [1]: 6.00
Emax at 24 h, 50 µM (PXR (NR1I2)): 250%

SMILES: Cc1nc(-c2cccc(F)c2O)n(CCc2ccccc2)c(=O)c1-c1cc(-c2ccccn2)c(C)s1
AUC(0-t) at 24 h [19]: 29500 ng·h/mL
pEC50 [1]: < 4.30
AUC(0-t) at 240 h [20]: 41100 ng·h/mL
Emax at 24 h, 50 µM (PXR (NR1I2)): 9%
Cmax [21]: 8900 ng/mL
Cmax [22]: 12000 ng/mL

SMILES: Cc1nc(-c2cccc(F)c2O)n(CCc2ccccc2)c(=O)c1-c1ccc(-c2ccccn2)s1
pEC50 [1]: 5.30
Emax at 24 h, 50 µM (PXR (NR1I2)): 36%

Other lines, results leading:

pEC50 [1]: < 5.00
Emax at 24 h, 50 µM (PXR (NR1I2)): 40%
SMILES: Cc1ncc(-c2c(C)nc(-c3cccc(F)c3O)n(CCc3ccccc3)c2=O)s1

pEC50 [1]: 5.49
Emax at 24 h, 50 µM (PXR (NR1I2)): 110%
SMILES: Cc1ccc(-c2nc(CCc3ccccc3)c(-c3cccc(F)c3O)nc2C)s1

pEC50 [1]: 5.10
Emax at 24 h, 50 µM (PXR (NR1I2)): 60%
SMILES: Cc1nc(-c2cccc(F)c2O)n(CCc2ccccc2)c(=O)c1-c1ccc(-c2ccccc2)s1

pEC50 [1]: 4.89
Emax at 24 h, 50 µM (PXR (NR1I2)): 31%
pIC50 [23]: < 5.00
SMILES: Cc1nc(-c2cccc(F)c2O)n(CCc2ccccc2)c(=O)c1-c1ccc(CO)s1

— ChEMBL document CHEMBL4837255, “Overcoming the Pregnane X Receptor Liability: Rational Design to Eliminate PXR-Mediated CYP Induction” (ACS Med Chem Lett, 2021)
